Measurements: patent US20200187502A1, “MICROBIOCIDAL OXADIAZOLE DERIVATIVES” (SYNGENTA PARTICIPATIONS AG, priority 2017, published 2020)

Experiments:
[1] = tested on: Glomerella lacenarium (Colletotrichum lacenarium); test: Fungicidal activity, liquid culture, cucumber preventative (anthracnose); type: cell-based; conditions: 20 ppm in the applied formulation, liquid culture in PDB, inhibition of growth measured photometrically 3 to 4 days after application, compared to untreated control, read-out: disease control
Method in brief: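 Conidia from cryogenic storage were mixed into potato dextrose broth and added to DMSO solutions of test compound in microtiter plates. Plates were incubated at 24° C. and growth inhibition read photometrically 3 to 4 days after application, as percent antifungal activity versus untreated check.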

[2] = tested on: Puccinia recondita f. Sp. Tritici; test: Fungicidal activity, wheat leaf disc curative (brown rust); type: in vivo; conditions: foliar, 200 ppm in the applied formulation, wheat leaf segments cv. Kanzler, curative (applied 1 day after inoculation), compared to untreated control, 6 to 8 days after application, read-out: disease control
Method in brief: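 Wheat cv. Kanzler leaf segments on agar were inoculated with fungal spore suspension, held dark at 19° C and 75% RH, then sprayed 1 day later with formulated compound diluted in water. Incubation continued at 19° C, 75% RH, 12 h light/12 h dark; percent disease control versus untreated was scored 6 to 8 days after application.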

[3] = tested on: Puccinia recondita f. Sp. Tritici; test: Fungicidal activity, wheat leaf disc preventative (brown rust); type: in vivo; conditions: foliar, 200 ppm in the applied formulation, wheat leaf segments cv. Kanzler, compared to untreated control, 7 to 9 days after application, read-out: disease control
Method in brief: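 Wheat cv. Kanzler leaf segments on agar were sprayed with formulated compound in water, then inoculated with spores 1 day later. Incubated at 19° C, 75% rh, 12 h light/12 h dark; percent disease control versus untreated scored 7 to 9 days after application.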

Phakopsora pachyrhizi = test: Fungicidal activity, soybean leaf disc preventative (Asian soybean rust); type: in vivo; conditions: foliar, 200 ppm in the applied formulation, soybean leaf disks, compared to untreated control, 12 to 14 days after application, read-out: disease control
Protocol: Leaf disks or leaf segments of various plant species are cut from plants grown in a greenhouse. The cut leaf disks or segments are placed in multiwell plates (24-well format) onto water agar. The leaf disks are sprayed with a test solution before (preventative) or after (curative) inoculation. Compounds to be tested are prepared as DMSO solutions (max. 10 mg/ml) which are diluted to the appropriate concentration with 0.025% Tween20 just before spraying. The inoculated leaf disks or segments are incubated under defined conditions (temperature, relative humidity, light, etc.) according to the respective test system. A single evaluation of disease level is carried out 3 to 14 days after inoculation, depending on the pathosystem. Percent disease control relative to the untreated check leaf disks or segments is then calculated.
Soybean leaf disks are placed on water agar in multiwell plates (24-well format) and sprayed with the formulated test compound diluted in water. One day after application leaf discs are inoculated by spraying a spore suspension on the lower leaf surface. After an incubation period in a climate cabinet of 24-36 hours in darkness at 20° C. and 75% rh leaf disc are kept at 20° C. with 12 h light/day and 75% rh. The activity of a compound is assessed as percent disease control compared to untreated when an appropriate level of disease damage appears in untreated check leaf disks (12 to 14 days after application).
The following compounds at 200 ppm in the applied formulation give at least 80% disease control in this test when compared to untreated control leaf disks under the same conditions, which show extensive disease development.

CCC(=O)N(Cc1ccc(-c2noc(C(F)(F)F)n2)s1)OC [Compound 1.12, N-methoxy-N-[[5-[5-(trifluoromethyl)-1,2,4-oxadiazol-3-yl]-2-thienyl]methyl]propanamide]
≥ 80%: inhibition of growth at 20 ppm [1] | pest or weed control at 200 ppm [2] | pest or weed control at 200 ppm [3] | pest or weed control at 200 ppm (Phakopsora pachyrhizi)

CCN(Cc1ccc(-c2noc(C(F)(F)F)n2)s1)C(=O)C1CC1 [Compound 5.4, N-ethyl-N-[[5-[5-(trifluoromethyl)-1,2,4-oxadiazol-3-yl]-2-thienyl]methyl]cyclopropanecarboxamide]
≥ 80%: inhibition of growth at 20 ppm [1] | pest or weed control at 200 ppm [2] | pest or weed control at 200 ppm [3] | pest or weed control at 200 ppm (Phakopsora pachyrhizi)

COCCCC(=O)N(Cc1ccc(-c2noc(C(F)(F)F)n2)s1)C1CC1 [Compound 4.58, N-cyclopropyl-4-methoxy-N-[[5-[5-(trifluoromethyl)-1,2,4-oxadiazol-3-yl]-2-thienyl]methyl]butanamide]
≥ 80%: inhibition of growth at 20 ppm [1] | pest or weed control at 200 ppm [2] | pest or weed control at 200 ppm [3] | pest or weed control at 200 ppm (Phakopsora pachyrhizi)

CC(=O)NCc1ccc(-c2noc(C(F)(F)F)n2)s1 [Compound 2.11, N-[[5-[5-(trifluoromethyl)-1,2,4-oxadiazol-3-yl]-2-thienyl]methyl]acetamide]
≥ 80%: inhibition of growth at 20 ppm [1] | pest or weed control at 200 ppm [2] | pest or weed control at 200 ppm [3] | pest or weed control at 200 ppm (Phakopsora pachyrhizi)

C=CCN(C)C(=O)N(C)Cc1ccc(-c2noc(C(F)(F)F)n2)s1 [Compound 4.77, 1-allyl-1,3-dimethyl-3-[[5-(5-(trifluoromethyl)-1,2,4-oxadiazol-3-yl]-2-thienyl]methyl]urea]
≥ 80%: inhibition of growth at 20 ppm [1] | pest or weed control at 200 ppm [2] | pest or weed control at 200 ppm [3] | pest or weed control at 200 ppm (Phakopsora pachyrhizi)

O=C(NCc1ccc(-c2noc(C(F)(F)F)n2)s1)C1CCOC1 (stereo not shown) [Compound 3.3, N-[[5-[5-(trifluoromethyl)-1,2,4-oxadiazol-3-yl]-2-thienyl]methyl]tetrahydrofuran-3-carboxamide]
≥ 80%: inhibition of growth at 20 ppm [1] | pest or weed control at 200 ppm [2] | pest or weed control at 200 ppm [3] | pest or weed control at 200 ppm (Phakopsora pachyrhizi)

CCC(=O)NCc1ccc(-c2noc(C(F)(F)F)n2)s1 [Compound 2.5, N-[[5-[5-(trifluoromethyl)-1,2,4-oxadiazol-3-yl]-2-thienyl]methyl]propanamide]
≥ 80%: inhibition of growth at 20 ppm [1] | pest or weed control at 200 ppm [2] | pest or weed control at 200 ppm [3] | pest or weed control at 200 ppm (Phakopsora pachyrhizi)

COCCCC(=O)N(C)Cc1ccc(-c2noc(C(F)(F)F)n2)s1 [Compound 4.38, 4-methoxy-N-methyl-N-[[5-[5-(trifluoromethyl)-1,2,4-oxadiazol-3-yl]-2-thienyl]methyl]butanamide]
≥ 80%: inhibition of growth at 20 ppm [1] | pest or weed control at 200 ppm [2] | pest or weed control at 200 ppm [3] | pest or weed control at 200 ppm (Phakopsora pachyrhizi)

COCCNC(=O)N(Cc1ccc(-c2noc(C(F)(F)F)n2)s1)OC [Compound 1.53, 1-methoxy-3-(2-methoxyethyl)-1-[[5-[5-(trifluoromethyl)-1,2,4-oxadiazol-3-yl]-2-thienyl]methyl]urea]
≥ 80%: inhibition of growth at 20 ppm [1] | pest or weed control at 200 ppm [2] | pest or weed control at 200 ppm [3] | pest or weed control at 200 ppm (Phakopsora pachyrhizi)

CCN(Cc1ccc(-c2noc(C(F)(F)F)n2)s1)C(=O)NC1CC1 [Compound 5.3, 3-cyclopropyl-1-ethyl-1-[[5-[5-(trifluoromethyl)-1,2,4-oxadiazol-3-yl]-2-thienyl]methyl]urea]
≥ 80%: inhibition of growth at 20 ppm [1] | pest or weed control at 200 ppm [2] | pest or weed control at 200 ppm [3] | pest or weed control at 200 ppm (Phakopsora pachyrhizi)

CN(Cc1ccc(-c2noc(C(F)(F)F)n2)s1)S(=O)(=O)Cc1ccccc1 [Compound 6.22, N-methyl-1-phenyl-N-[[5-[5-(trifluoromethyl)-1,2,4-oxadiazol-3-yl]-2-thienyl]methyl]methanesulfonamide]
≥ 80%: inhibition of growth at 20 ppm [1] | pest or weed control at 200 ppm [3] | pest or weed control at 200 ppm (Phakopsora pachyrhizi)

CN(Cc1ccc(-c2noc(C(F)(F)F)n2)s1)C(=O)N1CCCO1 [Compound 5.56, N-methyl-N-[[5-[5-(trifluoromethyl)-1,2,4-oxadiazol-3-yl]-2-thienyl]methyl]isoxazolidine-2-carboxamide]
≥ 80%: inhibition of growth at 20 ppm [1] | pest or weed control at 200 ppm [3] | pest or weed control at 200 ppm (Phakopsora pachyrhizi)

CCN(Cc1ccc(-c2noc(C(F)(F)F)n2)s1)S(=O)(=O)N(C)C [Compound 6.18, N-(dimethylsulfamoyl)-N-[[5-[5-(trifiuoromethyl)-1,2,4-oxadiazol-3-yl]-2-thienyl]methyl]ethanamine]
≥ 80%: inhibition of growth at 20 ppm [1] | pest or weed control at 200 ppm [3] | pest or weed control at 200 ppm (Phakopsora pachyrhizi)

CC(=O)N(Cc1ccc(-c2noc(C(F)(F)F)n2)s1)C(C)C [Compound 4.51, N-isopropyl-N-[[5-[5-(trifluoromethyl)-1,2,4-oxadiazol-3-yl]-2-thienyl]methyl]acetamide]
≥ 80%: inhibition of growth at 20 ppm [1] | pest or weed control at 200 ppm [2] | pest or weed control at 200 ppm (Phakopsora pachyrhizi)

CCN(Cc1ccc(-c2noc(C(F)(F)F)n2)s1)S(=O)(=O)CCOC [Compound 6.12, N-ethyl-2-methoxy-N-[[5-[5-(trifluoromethyl)-1,2,4-oxadiazol-3-yl]-2-thienyl]methyl]ethanesulfonamide]
≥ 80%: inhibition of growth at 20 ppm [1] | pest or weed control at 200 ppm [3] | pest or weed control at 200 ppm (Phakopsora pachyrhizi)

CON(Cc1ccc(-c2noc(C(F)(F)F)n2)s1)C(=O)C(C)C [Compound 1.26, N-methoxy-2-methyl-N-[[5-[5-(trifluoromethyl)-1,2,4-oxadiazol-3-yl]-2-thienyl]methyl]propanamide]
≥ 80%: inhibition of growth at 20 ppm [1] | pest or weed control at 200 ppm [3] | pest or weed control at 200 ppm (Phakopsora pachyrhizi)

CCCS(=O)(=O)N(CC)Cc1ccc(-c2noc(C(F)(F)F)n2)s1 [Compound 6.20, N-ethyl-N-[[5-[5-(trifluoromethyl)-1,2,4-oxadiazol-3-yl]-2-thienyl]methyl]propane-1-sulfonamide]
≥ 80%: inhibition of growth at 20 ppm [1] | pest or weed control at 200 ppm [3] | pest or weed control at 200 ppm (Phakopsora pachyrhizi)

CCN(Cc1ccc(-c2noc(C(F)(F)F)n2)s1)C(C)=O [Compound 4.31, N-ethyl-N-[[5-[5-(trifluoromethyl)-1,2,4-oxadiazol-3-yl]-2-thienyl]methyl]acetamide]
≥ 80%: inhibition of growth at 20 ppm [1] | pest or weed control at 200 ppm [3] | pest or weed control at 200 ppm (Phakopsora pachyrhizi)

CC(=O)NCC(=O)NCc1ccc(-c2noc(C(F)(F)F)n2)s1 [Compound 2.2, 2-acetamido-N-[[5-[5-(trifluoromethyl)-1,2,4-oxadiazol-3-yl]-2-thienyl]methyl]acetamide]
≥ 80%: pest or weed control at 200 ppm (Phakopsora pachyrhizi)

CCN(Cc1ccc(-c2noc(C(F)(F)F)n2)s1)S(=O)(=O)CC [Compound 6.14, N-ethyl-N-[[5-[5-(trifluoromethyl)-1,2,4-oxadiazol-3-yl]-2-thienyl]methyl]ethanesulfonamide]
≥ 80%: inhibition of growth at 20 ppm [1] | pest or weed control at 200 ppm (Phakopsora pachyrhizi)

CCN(Cc1ccc(-c2noc(C(F)(F)F)n2)s1)C(=O)COC [Compound 4.22, N-ethyl-2-methoxy-N-[[5-[5-(trifluoromethyl)-1,2,4-oxadiazol-3-yl]-2-thienyl]methyl]acetamide]
≥ 80%: inhibition of growth at 20 ppm [1] | pest or weed control at 200 ppm [3] | pest or weed control at 200 ppm (Phakopsora pachyrhizi)

CCC(=O)N(Cc1ccc(-c2noc(C(F)(F)F)n2)s1)C(C)C [Compound 4.46, N-isopropyl-N-[[5-[5-(trifluoromethyl)-1,2,4-oxadiazol-3-yl]-2-thienyl]methyl]propanamide]
≥ 80%: inhibition of growth at 20 ppm [1] | pest or weed control at 200 ppm [2] | pest or weed control at 200 ppm (Phakopsora pachyrhizi)

CCN(Cc1ccc(-c2noc(C(F)(F)F)n2)s1)C(=O)CC(F)(F)F [Compound 4.30, N-ethyl-3,3,3-trifluoro-N-[[5-[5-(trifluoromethyl)-1,2,4-oxadiazol-3-yl]-2-thienyl]methyl]propanamide]
≥ 80%: inhibition of growth at 20 ppm [1] | pest or weed control at 200 ppm [2] | pest or weed control at 200 ppm (Phakopsora pachyrhizi)
